Marks after values point to notes of the source that are not given here.
Experiments:
[1] = test system: patients with primary hypercholesterolemia (heFH and non-FH) who are intolerant to statins; assay: Example 3: randomized double-blind trial mAb316P versus ezetimibe (atorvastatin calibrator arm), lipid parameters; assay type: in vivo, human
Excerpt: The present study was a randomized, double-blind, double-dummy, active-controlled, parallel-group, multi-national, multi-center study in patients with primary hypercholesterolemia and moderate, high, or very high CV risk who are intolerant to statins. The study design is illustrated in FIG. 7.
Primary Efficacy Endpoint: The primary efficacy endpoint was the percent change in calculated LDL-C from baseline to week 24, which was defined as: 100× (calculated LDL-C value at week 24—calculated LDL-C value at baseline)/calculated LDL-C value at baseline. A baseline LDL-C value was needed for each patient as the baseline calculated LDL-C value was the last LDL-C level obtained before the first double-blind study drug injection.
Total-C, HDL-C, TG, ApoB, ApoA-1, and Lp(a) were directly measured by a central laboratory as per a predetermined schedule. Low-density lipoprotein cholesterol was calculated using the Friedewald formula at all visits (except week −15 and the follow-up visit). If TG values exceeded 400 mg/dL (4.52 mmol/L), then the central lab measured (via the beta quantification method) the LDL-C rather than calculate it. Non-HDL-C was calculated by subtracting HDL-C from the total-C. Ratio ApoB/ApoA-1 was calculated.
The double-blind period efficacy endpoint analysis results in the order of statistical hierarchical testing as specified in the above protocol (with multiple testing controlled at the 0.05 significance level) is set forth in Table 12. Primary and key secondary efficacy analyses were performed comparing mAb316P-treated patients to ezetimibe-treated patients. For clarification, the ITT analysis is defined for patients in the ITT population and includes all endpoint assessments in an analysis window, regardless of study treatment dosing status (i.e. includes post-treatment assessments). The on-treatment analysis is defined for patients in the mITT population and includes all endpoint assessments from the first double-blind study drug (capsule or injection, whichever comes first) up to 21 days after the last double-blind study drug injection, or 3 days after the last capsule intake, whichever came first (i.e. includes assessments in the efficacy treatment period). Note: A result is statistically significant if the p-value is s 0.05, in the order of the hierarchical testing.

[2] = test system: patients with hypercholesterolemia at moderate cardiovascular (CV) risk; assay: Example 2: safety (TEAEs, laboratory parameters, vital signs)
Excerpt: The clinical laboratory data consisted of urinalysis and blood analysis, hematology (RBC count, red blood cell distribution width (RDW), reticulocyte count, hemoglobin, hematocrit, platelets, WBC count with differential blood count), standard chemistry (glucose, sodium, potassium, chloride, bicarbonate, calcium, phosphorous, urea nitrogen, creatinine, uric acid, total protein, LDH, albumin, γ Glutamyl Transferase [γGT]), Hepatitis C antibody, liver panel (ALT, AST, ALP, and total bilirubin), and CPK.
Safety endpoints—Vital signs measurement: Vital signs included: HR, systolic and diastolic BP in sitting position.
The safety analysis included all randomized and treated patients. Safety data were analyzed by descriptive statistics.

[3] = WK24, ITT analysis, listed as EZE
[4] = WK24, ITT analysis, listed as Ezetimibe

O=C1[C@H](CC[C@H](O)c2ccc(F)cc2)[C@@H](c2ccc(O)cc2)N1c1ccc(F)cc1 [ezetimibe, reference compound]
Apo A-1 LS mean percent change from baseline ([1]; WK12, ITT analysis): LS mean: 3.9% | Apo B LS mean percent change from baseline ([1]; WK12, ITT analysis): LS mean: −11.6% | Fasting Triglycerides LS mean percent change from baseline ([1]; WK12, ITT analysis): LS mean: −9.4% | HDL-C LS mean percent change from baseline ([1]; WK12, ITT analysis): LS mean: 7.6% | LDL-C LS mean percent change from baseline ([1]; WK12, ITT analysis): LS mean: −15.6% | Lp(a) LS mean percent change from baseline ([1]; WK12, ITT analysis): LS mean: −4.5% | Non-HDL-C LS mean percent change from baseline ([1]; WK12, ITT analysis): LS mean: −15.8% | Total Cholesterol LS mean percent change from baseline ([1]; WK12, ITT analysis): LS mean: −11.6% | LDL-C LS mean percent change from baseline ([1]; WK12, on-treatment analysis): LS mean: −18.0% | Apo A-1 LS mean percent change from baseline ([1]; WK24, ITT analysis): LS mean: 2.9% | Fasting Triglycerides LS mean percent change from baseline ([1]; WK24, ITT analysis): LS mean: −3.5% | HDL-C LS mean percent change from baseline ([1]; WK24, ITT analysis): LS mean: 6.8% | LDL-C LS mean percent change from baseline ([1]; WK24, ITT analysis): −14.6% | Proportion with LDL-C <70 mg/dL ([1]; WK24, ITT analysis): Proportion = 0.8% | Proportion with Very High CV LDL-C <70 mg/dL OR Moderate/High CV LDL-C <100 mg/dL ([1]; WK24, ITT analysis): Proportion = 4.1% | Total Cholesterol LS mean percent change from baseline ([1]; WK24, ITT analysis): LS mean: −10.9% | Apo B LS mean percent change from baseline [1, 3]: −11.2* % | LDL-C LS mean percent change from baseline [1, 3]: -14.6% | Lp(a) LS mean percent change from baseline [1, 3]: −7.3* % | Non-HDL-C LS mean percent change from baseline [1, 3]: −14.6* % | Apo B LS mean percent change from baseline [1, 4]: LS mean: −11.2% | LDL-C LS mean percent change from baseline [1, 4]: LS mean: −14.6% | Lp(a) LS mean percent change from baseline [1, 4]: LS mean: −7.3% | Non-HDL-C LS mean percent change from baseline [1, 4]: LS mean: −14.6% | Apo B LS mean percent change from baseline ([1]; WK24, on-treatment analysis): LS mean: −14.4% | LDL-C LS mean percent change from baseline ([1]; WK24, on-treatment analysis): LS mean: −17.1% | Non-HDL-C LS mean percent change from baseline ([1]; WK24, on-treatment analysis): LS mean: −17.1% | Proportion with LDL-C <70 mg/dL ([1]; WK24, on-treatment analysis): Proportion = 0.8% | Proportion with Very High CV LDL-C <70 mg/dL OR Moderate/High CV LDL-C <100 mg/dL ([1]; WK24, on-treatment analysis): Proportion = 4.2% | patients who reached LDL-C goal at week 24 ([1]; goal <70 mg/dL very high risk, <100 mg/dL moderate and high risk): 4.4% | LS mean LDL-C value at week 24 ([1]; in vivo): 159.9 mg/dL | change in LDL-C level from baseline ([1]; week 24): -33 mg/dL | Alanine aminotransferase (ALT) ≧3× ULN ([2]; Laboratory parameters): 0/51 | Alanine aminotransferase (ALT) ≧3× ULN (if baseline ALT <ULN) or ≧2× the baseline value (if baseline ALT ≧ULN) ([2]; Laboratory parameters): 0/51 | Albumin ≦25 g/L ([2]; Laboratory parameters): 0/50 | Aspartate aminotransferase >3× ULN ([2]; Laboratory parameters): 0/51 | Glucose ≦70 mg/dL (3.9 mmol/L) and <LLN ([2]; Laboratory parameters): 0/50 | Patients with any TEAE ([2]; Safety Population): 40 (78.4) n (%) | Patients with any TEAE leading to death ([2]; Safety Population): 0 n (%) | Patients with any TEAE leading to treatment discontinuation ([2]; Safety Population): 4 (7.8) n (%) | Patients with any treatment emergent SAE ([2]; Safety Population): 1 (2.0) n (%) | Arthralgia ([2]; TEAE): 2 (3.9) n (%) | Diarrhea ([2]; TEAE): 2 (3.9) n (%) | Dizziness ([2]; TEAE): 3 (5.9) n (%) | Headaches ([2]; TEAE): 2 (3.9) n (%) | Nasopharyngitis ([2]; TEAE): 8 (15.7) n (%) | Nausea ([2]; TEAE): 3 (5.9) n (%) | Upper respiratory tract infection ([2]; TEAE): 5 (9.8) n (%) | Urinary tract infection ([2]; TEAE): 3 (5.9) n (%) | back pain ([2]; TEAE): 3 (5.9) n (%) | General disorders and administration site conditions ([2]; TEAEs of interest): 5 (9.8) n (%) | Injection site reaction ([2]; TEAEs of interest): 2 (3.9) n (%) | Muscle disorders ([2]; TEAEs of interest): 2 (3.9) n (%) | Musculoskeletal and connective tissue disorders ([2]; TEAEs of interest): 11 (21.6) n (%) | Musculoskeletal and connective tissue disorders NEC ([2]; TEAEs of interest): 5 (9.8) n (%) | Musculoskeletal pain ([2]; TEAEs of interest): 1 (2.0) n (%) | Myalgia ([2]; TEAEs of interest): 1 (2.0) n (%) | muscle spasms ([2]; TEAEs of interest): 1 (2.0) n (%) | Muscle-related AEs ([2]; discussion): 4% | injection related AEs ([2]; disposable autoinjector): < 4% | Muscle-related TEAEs ([2]; in vivo): 2 (4%) patients (%) | overall percentage of patients who experienced at least one TEAE ([2]; in vivo): 78% | patients with abnormalities in vital signs (blood pressure, heart rate) ([2]; in vivo): ≤ 2 patients | patients with blood glucose >126 mg/dL (7 mmol/L) ([2]; in vivo): 1 patients | patients with elevated creatine kinase levels over 10 times the upper limit of normal ([2]; in vivo): 1 patient | TEAE class infection ([2]; mostly respiratory): 39.2%

From patent publication US20150140002A1, “USE OF A PCSK9 INHIBITOR TO TREAT […]” (Sanofi, priority 2013, published 2015)
